Reference: US20160296511A1, “LAQUINIMOD FOR REDUCING THALAMIC DAMAGE IN MULTIPLE SCLEROSIS” (Teva Pharmaceutical Industries, Ltd., priority 2012, published 2016)

What was measured:
[1] = system: subjects with RRMS; test: ALLEGRO phase III clinical trial of daily oral laquinimod 0.6 mg in RRMS; type: in vivo, human; conditions: laquinimod 0.6 mg daily oral, 24 months
Protocol: A multinational (24 countries), multicenter (approximately 139 sites), randomized, double-blinded, parallel-group, placebo-controlled clinical trial (“ALLEGRO” or MS-LAQ-301) was conducted to evaluate the efficacy, safety and tolerability of daily oral administration of laquinimod 0.6 mg in subjects with RRMS for a 24 months duration. One thousand one hundred and six (1106) patients were equally randomized to either laquinimod 0.6 mg or placebo and treated in a double-blind manner and baseline characteristics were balanced between groups. The primary endpoint of the study was the number of confirmed relapses during the double-blind treatment period, which corresponds to the annualized relapse rate (ARR—number of relapses divided by total exposure of all patients). Secondary endpoints included disability as measured by Expanded Disability Status Scale (EDSS) changes confirmed at 3 months, and cumulative number of gadolinium enhancing (GdE) and new/enlarging T2 MRI lesions. Double blind treatment phase: 24 months of once-daily oral administration of daily dose of 0.6 mg laquinimod or matching placebo. Eligible subjects were equally randomized 1:1 into one of the following treatment arms: • 1. Laquinimod capsules 0.6 mg: One 0.6 mg laquinimod capsule was administered orally once daily. The 0.6 mg laquinimod capsules contain 0.6 mg of Laquinimod Acid per capsule with meglumine, and were manufactured according to the method disclosed in PCT International Application Publication No. WO/2007/146248, published Dec. 21, 2007 (see, page 10, line 5 to page 11, line 3). • 2. Matching placebo for laquinimod arm: one capsule is administered once daily. The primary endpoint was the number of confirmed relapses during the double-blind study period. […] An event was counted as a relapse if the subject's symptoms were accompanied by observed objective neurological changes consistent with at least one of the following: an increase of at least 0.5 in the EDSS score; an increase of one grade in two or more of the seven functional systems; or an increase of two grades in one functional system. […] Secondary endpoints were disability progression as measured by the EDSS and the MSFC. […] Additional predefined disability endpoints include the proportion of patients without confirmed disability progression at 24 months; confirmed disability progression (defined as change in EDSS scores ≧1.0 points for baseline EDSS 0 to 5.0 or ≧5.5) sustained for six months; the accumulation of physical disability as measured by mean EDSS and the mean change in EDSS from baseline to last observed value (LOV). […]

[2] = system: RRMS patients; conditions: cited from earlier work

## CCN(C(=O)c1c(O)c2c(Cl)cccc2n(C)c1=O)c1ccccc1 [Laquinimod]
[1]
  Annualized relapse rates: effectively reduced annualized relapse rates
  Brain atrophy: reduced brain atrophy
  Development of new lesions: reduced the development of new lesions
  Progression of disability: slowed the progression of disability
[2]; 0.6 mg/day, RRMS patients
  Disability and brain atrophy progression: slowed disability and brain atrophy progression
[2]; ALLEGRO and BRAVO
  Rate of whole brain atrophy compared with placebo: decreased the rate of whole brain atrophy
[2]; two phase III trials
  Safety and tolerability profile: favorable safety and tolerability profile
